Test results reported in PMC6535779, “A Specific, Glycomimetic Langerin Ligand for Human Langerhans Cell Targeting” (ACS Central Science, 2019).

How the values were obtained:
DC-SIGN CRD = target: T1, DC-SIGN CRD (Homo sapiens, UniProt Q9NNX6); assay: 19F R2-filtered NMR reporter displacement assay with DC-SIGN; type: binding
T1 construct: with the DC-SIGN CRD were performed at a receptor concentration of 50 μM; made in house
T1 sequence (Q9NNX6 263-378 limits assumed): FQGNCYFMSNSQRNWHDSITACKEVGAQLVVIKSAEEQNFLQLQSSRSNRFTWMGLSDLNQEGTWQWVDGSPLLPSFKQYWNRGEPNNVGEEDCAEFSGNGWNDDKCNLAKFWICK
Text: Figure S7. 19F R2-filtered NMR assay development with DC-SIGN. […]
substantial line broadeni ng. This phenomenon was utilized to develop the 19F R2-filtered NMR reporter displacement assay following the procedure previously published for Langerin 3. The spectrum in absence of DC -SIGN is processed with an exponential apodization function at 1.8 Hz. b. The interaction between 24 and DC-SIGN was quantified via the transversal relaxation rate R2,obs using the CPMG pulse sequence4-5. Representative decay curves in the presence of DC-SIGN are shown. c. The Ca2+-dependency of the interaction was validated via addition of EDTA. The R2,obs value in absence of DC-SIGN was determined from four independent experiments. The standard error for the experiments in presence of DC-SIGN and EDTA is derived directly from the fitting procedure. d. Relaxation dispersion experiments for 24 in presence of DC-SIGN indicate at negligible exchange contribution R2,ex at a νCPMG value of 500 Hz. In contrast to Langerin, a considerable exchange contribution is observed a lower νCPMG values. e. A representative binding isotherm for the affinity determination for 24 is shown. The KD value was determined from three independent titrations. The obtained K D and additional parameters from the fitting procedure are given in Tab le S3.
(1 picture or pasted object on this page, not shown here)
(§1) Receptor Expression and Purification
General remarks. Codon-optimized genes for the expression of Langerin and DC-SIGN in E. coli were purchased from GenScript and Life Technologies, respectively. All growth media or chemicals used for receptor expression and purification were purchased from Carl Roth if not stated otherwise. […]
Langerin and DC-SIGN carbohydrate recognition domain. Expression and purification were conducted as previously published14. Briefly, the monomeric 15N-labeled Langerin and DC-SIGN carbohydrate recognition domains (CRDs) were expressed insolubly in E. coli BL21* (DE3) (Invitrogen). Following enzymatic cell lysis, inclusion bodies were harvested and subsequently solubilized. The sample was centrifuged and the Langerin and DC-SIGN CRDs were refolded overnight via rapid dilution. Next, the sample was dialyzed overnight, centrifuged and purified via StrepTactin affinity chromatography (Iba). After an additional dialysis step overnight, the sample was centrifuged and the buffer was exchanged to 25 mM HEPES with 150 mM NaCl at pH 7.0 using 7 kDa size-exclusion desalting columns (Thermo Scientific) for 19F R2-filtered and 15N HSQC NMR experiments. The concentration of Langerin and DC -SIGN CRDs was determined via UV spectroscopy (A280, 0.1% = 3.19 and A280, 0.1% = 2.98). Purity and monodispersity of Langerin and DC - SIGN CRD samples were analyzed via SDS PAGE and DLS.
(§2) General remarks. 19F R2-filtered NMR experiments were conducted on a PremiumCompact 600 MHz spectrometer (Agilent). Spectra were processed in MestReNova and data analysis was performed with OriginPro 13, 15. Experiments with the Langerin ECD were performed at a receptor concentration of 50 μM in 25 mM Tris with 10% D2O, 150 mM NaCl and 5 mM CaCl2 at pH 7.8 and 25° C. Experiments […]
with the DC-SIGN CRD were performed at a receptor concentration of 50 μM in 25 mM HEPES with 10% D2O, 150 mM NaCl and 5 mM CaCl2 at pH 7.0 and 25°C. TFA served as an internal reference at a concentration of 50 μM. Apparent relaxation rates R2,obs for the reporter ligand were determined using the CPMG pulse sequence as previously published3-5.
Assay development for DC-SIGN. The 19F R2-filtered NMR reporter displacement assay for DC-SIGN was developed following the procedure previously published for Langerin3. Briefly, the KD value and the relaxation rate in bound state R2,b were determined at five concentrations [L]T of reporter ligand 24 in three independent titration experiments. Samples were prepared via serial dilution. The addition of 10 mM EDTA served to validate the Ca2+-dependency of the interaction between DC-SIGN and the reporter ligand. […]

Langerin CRD = target: T2, Langerin CRD (Homo sapiens, UniProt Q9UJ71); set-up: method as in PMID 27458873; details: previously published value; cited from earlier work
T2 construct: Experiments with the Langerin CRD were performed at; made in house
T2 sequence (Q9UJ71 202-320 limits assumed): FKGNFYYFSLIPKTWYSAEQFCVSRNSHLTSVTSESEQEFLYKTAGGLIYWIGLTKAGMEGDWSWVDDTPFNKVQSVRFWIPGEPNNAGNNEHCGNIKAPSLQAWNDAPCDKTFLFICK

[1] = target: T3, Langerin extracellular domain (ECD) (Homo sapiens, UniProt Q9UJ71); set-up: method as in PMID 27458873; details: 19F R2-filtered NMR; previously published value; cited from earlier work
T3 construct: the trimeric Langerin extracellular domain (ECD) was expressed insolubly in E; made in house
T3 sequence (Q9UJ71 65-328 limits assumed): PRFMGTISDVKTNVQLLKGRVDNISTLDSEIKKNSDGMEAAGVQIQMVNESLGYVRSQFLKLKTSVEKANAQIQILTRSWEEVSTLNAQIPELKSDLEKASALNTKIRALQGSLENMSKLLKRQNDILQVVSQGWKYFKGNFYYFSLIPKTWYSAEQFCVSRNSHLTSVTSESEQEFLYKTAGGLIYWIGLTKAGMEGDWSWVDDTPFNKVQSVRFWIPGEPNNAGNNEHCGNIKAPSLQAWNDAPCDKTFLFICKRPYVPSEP

[2] = target: T3, Langerin extracellular domain (ECD); assay: 19F R2-filtered NMR reporter displacement assay with Langerin; type: binding; details: calculated utilizing the KI value determined for 21
Procedure: as §1
General remarks. Codon-optimized genes for the expression of Langerin and DC-SIGN in E. coli were purchased from GenScript and Life Technologies, respectively. All growth media or chemicals used for receptor expression and purification were purchased from Carl Roth if not stated otherwise.
Langerin extracellular domain. Expression and purification were conducted as previously published14. Briefly, the trimeric Langerin extracellular domain (ECD) was expressed insolubly in E. coli BL21* (DE3) (Invitrogen). Following enzymatic cell lysis, inclusion bodies were harvested and subsequently solubilized. The sample was centrifuged and the Langerin ECD was refolded overnight via rapid dilution. Next, the sample was dialyzed overnight, centrifuged and purified via mannan-agarose affinity chromatography (Sigma Aldrich). For 19F R2-filtered NMR and lipid-enzyme-linked lectin assay (Lipid-ELLA) experiments, the buffer was exchanged to 25 mM Tris with 150 mM NaCl and 5 mM CaCl2 at pH 7.8 using 7 kDa size-exclusion desalting columns (Thermo Scientific). For […]
D2O, 150 mM NaCl and 5 mM CaCl2 at pH 7. The concentration of Langerin ECD was determined via UV spectroscopy (A280, 0.1% = 2.45). Purity and monodispersity of Langerin ECD samples were analyzed via SDS PAGE and DLS. […]
as §2, with “C.” for “C. Experiments”
10% D2O, 150 mM NaCl and 5 mM CaCl2 at pH 7.0 and 25°C. TFA served as an internal reference at a concentration of 50 μM. Apparent relaxation rates R2,obs for the reporter ligand were determined using the CPMG pulse sequence as previously published3-5. […]
KI determination. KI values were determined as previously published for Langerin3. Briefly, titration experiments were conducted at a concentration of 0.1 mM of reporter ligand 24 at five competitor concentrations [I]T. Samples were prepared via serial dilution. For the acids GlcNS, GlcNAc-6-OS and GlcNS-6-OS the pH values were monitored and adjusted to 7.8 if necessary.
General remarks. 15N HSQC NMR experiments were conducted on an Ascend 700 MHz spectrometer (Bruker)16. Spectra were processed in NMRPipe17. Data analysis was performed using CCPN Analysis, MatLab and OriginPro15, 18-19. Experiments with the Langerin CRD were performed at a receptor concentration of 100 μM in 25 mM HEPES with 10% D 2O, 150 mM NaCl and 5 mM CaCl2 at pH 7.8 and 25° C. DSS-d6 served as an internal reference at a concentration of 100 μM. Spectra were referenced via the internal spectrometer reference. Spectra were acquired with 128 increments and 32 scans per increments for 150 μl samples in 3 mm sample tubes. The relaxation delay d1 was set to 1.4 s and the acquisition time tacq was set to 100 ms. The W5 Watergate pulse sequence was used for solvent suppression20. The used resonance assignment for the Langerin CRD has been published […]
KD determination. KD values were determined in titration experiments at six ligand concentrations [L]T. Samples were prepared via serial dilution. Chemical shift perturbations CSPs for Langerin CRD resonances in the fast or fast-to-intermediate exchange regime observed upon titration with ligand were calculated via Equation 121.

- Ki (DC-SIGN CRD; 19F R2-filtered NMR, DC-SIGN CRD, pH 7.0, 25 °C): 3 ± 0.3 mM
- specificity (DC-SIGN CRD; Table 1, Langerin against DC-SIGN, from KI values): 0.67
- Relative potency, Langerin [2]: 2.2
Compound: OC[C@H]1OC(O)[C@@H](O)[C@@H](O)[C@@H]1O (some centres unmarked) [Man, mannose]
- Kd (Langerin CRD): 6.5 ± 0.2 mM
- Ki [1]: 4.5 ± 0.5 mM
